Measurements as given in patent US20100184683A1, “ANTIBACTERIAL AND ANTIFUNGAL PEPTIDES” (C3 JIAN, INC., priority 2009, published 2010).
≈ marks a conversion by molar mass, not a printed value. Where two headings read alike, the source gives them in different places. Peptide text beside a SMILES is read from it.

What was measured:
[1] = tested on: T. rubrum; format: cell-based, Trichophyton rubrum
Summary of the method: (§1)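 Minimum inhibitory concentration was determined separately for each organism, using media and growth conditions chosen for that organism.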

[2] = tested on: B. subtilis; format: cell-based, Bacillus subtilis
Summary of the method: as §1

[3] = tested on: MRSA; format: cell-based, Methicillin-resistant Staphylococcus aureus
Summary of the method: as §1

[4] = tested on: S. epidermidis; format: cell-based
Summary of the method: as §1

[5] = tested on: C. albicans; format: cell-based, Candida albicans
Method: (§2) In certain embodiments the MIC assays are performed as described herein in the Examples. For each organism, the media and growth conditions utilized is detailed in Table 8.
(§3) In certain embodiments the MIC assays are performed as follows: For each organism, the media and growth conditions utilized is detailed in Table 8.

[6] = tested on: A. niger; format: cell-based, Aspergillus niger
Summary of the method: as §1

[7] = tested on: E. faecalis; format: cell-based, Enterococcus faecalis
Method: as §2, §3

[8] = tested on: P. gingivalis; format: cell-based, Porphyromonas gingivalis
Method: as §2, §3

[9] = tested on: S. mutans; format: cell-based, Streptococcus mutans
Method: as §2, §3

[10] = tested on: A. naeslundii; format: cell-based, Actinomyces naeslundii
Method: as §2, §3

[11] = tested on: F. nucleatum; format: cell-based, Fusobacterium nucleatum
Method: as §2, §3

[12] = tested on: E. coli; format: cell-based, Escherichia coli
Method: as §2, §3

[13] = tested on: S. pneumoniae; format: cell-based, Streptococcus pneumoniae
Summary of the method: as §1

[14] = tested on: P. aeruginosa; format: cell-based, Pseudomonas aeruginosa
Method: as §2, §3

[15] = tested on: M. furfur; assay: MIC assay, M. furfur; format: cell-based, Malassezia furfur; conditions: ATCC medium 1072, 37° C., aerobic, inoculum 10^5 CFU/ml, 18-24 h or 48 h
Method: as §2, §3

[16] = tested on: C. jeikeium; assay: MIC assay, C. jeikeium; format: cell-based, Corynebacterium jeikium; conditions: TSB supplemented with 1% Tween-80, 37° C., aerobic, inoculum 10^6 CFU/ml, 18-24 h or 48 h
Method: as §2, §3

| Compound | MIC [1] | MIC [3] | MIC [4] | MIC [5] | MIC [8] | MIC [9] | MIC [10] | MIC [11] | MIC [2] | also measured |
| --- | --- | --- | --- | --- | --- | --- | --- | --- | --- | --- |
| CC[C@H](C)[C@H](NC(=O)[C@H](CCC(N)=O)NC(=O)[C@H](CCCCN)NC(=O)[C@H](CC(C)C)NC(=O)[C@H](CC(C)C)NC(=O)[C@@H]1CCCN1C(=O)[C@H](CCSC)NC(=O)[C@H](CC(C)C)NC(=O)[C@H](CO)NC(=O)[C@H](CCCCN)NC(=O)CNC(=O)[C@@H](N)CCCCN)C(=O)N[C@@H](CC(N)=O)C(=O)N[C@@H](CCC(N)=O)C(=O)N[C@@H](Cc1c[nH]c2ccccc12)C(=O)NCC(=O)N[C@@H](CCCCN)C(=O)N[C@@H](CC(C)C)C(=O)N[C@@H](Cc1ccc(O)cc1)C(=O)N[C@@H](CC(C)C)C(=O)O [PF-C239] (H-KGKSLMPLLKQINQWGKLYL-OH; N-terminus and C-terminus assumed) | – | – | – | – | 50 µM (≈ 118 µg/mL) | 50 µM (≈ 118 µg/mL) | 25 µM (≈ 59 µg/mL) | 50 µM (≈ 118 µg/mL) | – | – |
| CC[C@H](C)[C@H](NC(=O)[C@@H](NC(=O)[C@H](CO)NC(=O)CN)C(C)C)C(=O)N[C@@H](CCCCN)C(=O)N[C@@H](CCCCN)C(=O)N[C@@H](CCCNC(=N)N)C(=O)N[C@@H](CCCNC(=N)N)C(=O)N[C@@H](CCCCN)C(=O)N[C@@H](CCCNC(=N)N)C(=O)N[C@@H](CCSC)C(=O)N[C@@H](CO)C(=O)N[C@@H](CCCCN)C(=O)N[C@@H](CCCCN)C(=O)N[C@@H](CCCCN)C(=O)N[C@@H](Cc1c[nH]cn1)C(=O)N[C@@H](CCCNC(=N)N)C(=O)N[C@@H](CCCCN)C(=O)N[C@@H](CCSC)C(=O)N[C@@H](CC(C)C)C(=O)N[C@@H](CCCNC(=N)N)C(=O)N[C@@H](CCCNC(=N)N)C(=O)N[C@H](C(=O)N[C@@H](CCCNC(=N)N)C(=O)N[C@H](C(=O)N[C@@H](CCC(N)=O)C(=O)N[C@@H](CCCNC(=N)N)C(=O)N[C@@H](CCCNC(=N)N)C(=O)N[C@@H](CCCCN)C(=O)N[C@@H](CC(C)C)C(=O)NCC(=O)N[C@@H](CCCCN)C(=O)O)C(C)C)[C@@H](C)O [PF-S028] | – | – | – | – | – | – | – | – | 12.5 µM (≈ 50.4 µg/mL) | MIC ([14]; P. aeruginosa, MH, 37° C., aerobic, inoculum 10^5 CFU/ml, 18-24 h or 48 h): 50 µM (≈ 202 µg/mL); MIC ([8]; P. gingivalis, Columbia broth, 37° C., anaerobic, inoculum 10^5 CFU/ml, 18-24 h or 48 h): 25 µM (≈ 101 µg/mL); MIC ([1]; T. rubrum, Potato Dextrose Agar, 25° C., aerobic, inoculum 10^5 CFU/ml, 18-24 h or 48 h): 50 µM (≈ 202 µg/mL); MIC [15]: 2.5 µM (≈ 10.1 µg/mL); MIC [16]: 6.25 µM (≈ 25.2 µg/mL); MIC ([3]; MRSA, BHI supplemented with 2% glucose, 37° C., aerobic, inoculum 10^5 CFU/ml, 18-24 h or 48 h): 50 µM (≈ 202 µg/mL); MIC ([4]; S. epidermidis, BHI supplemented with 0.25% glucose, 37° C., aerobic, inoculum 10^5 CFU/ml, 18-24 h or 48 h): 25 µM (≈ 101 µg/mL); MIC ([9]; S. mutans, TH supplemented with 1% sucrose, 37° C., anaerobic, inoculum 10^5 CFU/ml, 18-24 h or 48 h): 50 µM (≈ 202 µg/mL) |
| CC[C@H](C)[C@H](NC(=O)[C@H](C)NC(=O)[C@H](CC(N)=O)NC(=O)[C@@H](NC(=O)[C@H](CC(C)C)NC(=O)[C@H](CCCNC(=N)N)NC(=O)[C@H](Cc1ccc(O)cc1)NC(=O)[C@@H](N)CC(N)=O)C(C)C)C(=O)N[C@@H](Cc1ccccc1)C(=O)N[C@@H](CO)C(=O)N[C@@H](CCCCN)C(=O)N[C@H](C(=O)N[C@@H](Cc1ccccc1)C(=O)N[C@@H](CCCCN)C(=O)N[C@@H](CCCCN)C(=O)N[C@@H](CCCCN)C(=O)N[C@@H](Cc1ccccc1)C(=O)N[C@H](C(=O)N[C@@H](CCCCN)C(=O)N[C@@H](Cc1ccccc1)C(=O)O)[C@@H](C)CC)[C@@H](C)CC [PF-C252] (H-NYRLVNAIFSKIFKKKFIKF-OH; N-terminus and C-terminus assumed) | 50 µM (≈ 125 µg/mL) | 50 µM (≈ 125 µg/mL) | 25 µM (≈ 62.6 µg/mL) | 25 µM (≈ 62.6 µg/mL) | 25 µM (≈ 62.6 µg/mL) | 12.5 µM (≈ 31.3 µg/mL) | 25 µM (≈ 62.6 µg/mL) | 25 µM (≈ 62.6 µg/mL) | – | MIC [14]: 50 µM (≈ 125 µg/mL) |

Continued, in another order:

| MIC [1] | MIC [3] | MIC [4] | MIC [5] | MIC [8] | MIC [9] | MIC [10] | MIC [11] | Compound | MIC [2] | also measured |
| --- | --- | --- | --- | --- | --- | --- | --- | --- | --- | --- |
| 0.78 µM (≈ 2.72 µg/mL) | 1.56 µM (≈ 5.44 µg/mL) | 0.39 µM (≈ 1.36 µg/mL) | 1.56 µM (≈ 5.44 µg/mL) | – | – | – | – | CC[C@H](C)[C@H](NC(=O)[C@H](C)NC(=O)[C@H](CO)NC(=O)[C@H](CC(=O)O)NC(=O)[C@H](Cc1ccc(O)cc1)NC(=O)[C@H](C)NC(=O)[C@@H](NC(=O)[C@H](CC(C)C)NC(=O)[C@H](C)NC(=O)[C@H](CC(C)C)NC(=O)[C@H](CO)NC(=O)CNC(=O)[C@H](Cc1ccccc1)NC(=O)[C@H](CCCNC(=N)N)NC(=O)[C@@H](N)CCSC)C(C)C)C(=O)N[C@@H](CCCCN)C(=O)N[C@@H](Cc1c[nH]cn1)C(=O)N[C@@H](CO)C(=O)N[C@@H](Cc1c[nH]c2ccccc12)C(=O)N1CCC[C@H]1C(=O)N[C@@H](CCCNC(=N)N)C(=O)N1CCC[C@H]1C(=O)N[C@@H](CO)C(=O)N[C@@H](CO)C(=O)N[C@H](C(=O)N[C@@H](CCCNC(=N)N)C(=O)N[C@@H](CCCNC(=N)N)C(=O)N[C@@H](CC(C)C)C(=O)N[C@@H](CCCNC(=N)N)C(=O)N[C@@H](CCSC)C(=O)O)C(C)C [PF-672] (H-MRFGSLALVAYDSAIKHSWPRPSSVRRLRM-OH; N-terminus and C-terminus assumed) | 0.78 µM (≈ 2.72 µg/mL) | MIC [6]: 3 µM (≈ 10.5 µg/mL); MIC [7]: 3.13 µM (≈ 10.9 µg/mL) |
| – | 50 µM (≈ 222 µg/mL) | 50 µM (≈ 222 µg/mL) | – | – | 50 µM (≈ 222 µg/mL) | – | – | CC[C@H](C)[C@H](NC(=O)[C@H](CCCCN)NC(=O)CNC(=O)[C@H](CC(N)=O)NC(=O)[C@H](CCC(N)=O)NC(=O)[C@H](Cc1ccc(O)cc1)NC(=O)[C@H](C)NC(=O)[C@H](CCCCN)NC(=O)[C@H](C)NC(=O)[C@H](Cc1ccccc1)NC(=O)[C@H](CC(=O)O)NC(=O)[C@H](CCC(N)=O)NC(=O)[C@H](Cc1c[nH]cn1)NC(=O)[C@H](CO)NC(=O)[C@H](CC(N)=O)NC(=O)[C@H](Cc1ccccc1)NC(=O)[C@H](CO)NC(=O)[C@H](CC(C)C)NC(=O)[C@H](C)NC(=O)[C@@H](NC(=O)[C@H](CC(N)=O)NC(=O)[C@@H](NC(=O)[C@H](CCCCN)NC(=O)[C@H](CCCCN)NC(=O)[C@H](CCC(=O)O)NC(=O)[C@H](CCCCN)NC(=O)[C@H](CC(=O)O)NC(=O)[C@H](CC(C)C)NC(=O)[C@H](CCC(=O)O)NC(=O)[C@H](CCCCN)NC(=O)[C@H](CO)NC(=O)[C@H](C)NC(=O)[C@H](CC(N)=O)NC(=O)[C@H](CC(C)C)NC(=O)[C@@H](NC(=O)[C@H](CCCCN)NC(=O)[C@H](CO)NC(=O)[C@H](CCC(=O)O)NC(=O)[C@@H](N)Cc1ccccc1)[C@@H](C)CC)C(C)C)[C@@H](C)O)C(=O)O [PF-606] (H-FESKILNASKELDKEKKVNTALSFNSHQDFAKAYQNGKI-OH; N-terminus and C-terminus assumed) | – | MIC [12]: 50 µM (≈ 222 µg/mL); MIC [13]: 50 µM (≈ 222 µg/mL) |
